# Results reported in patent US20220288057A1, “CONJOINT THERAPY FOR TREATING SEIZURE DISORDERS” (XENON PHARMACEUTICALS INC., priority 2021, published 2022).
# Read-outs that look alike come from different tables or passages of the source.
# How the values were obtained:
# MES assay = conditions: Barton et al. 2001; cited from earlier work
# [1] = tested on: 6 Hz psychomotor seizures in CF-1 mice; experiment: Mouse 6 Hz psychomotor seizure assay (34 milliampere, 3 s); type: in vivo; conditions: for Fraction Seizing: Levetiracetam 300 mg/kg IP 1 h alone
# Protocol: It was evaluated whether the combination of both compounds is favorable or unfavorable for efficacy by dosing Compound A and Levetiracetam alone and in combination, each at a dose that produces sub-maximal efficacy on its own. […] Plasma and brain samples were analyzed to gain an understanding of how the combination of Compound A and Levetiracetam may affect pharmacokinetics and pharmacodynamics. […] 6 Hz Psychomotor Seizure Assay: […] The animal was then securely restrained and a pair of electrodes was applied to the eyes (Electro Convulsive Therapy Unit 57800, Ugo Basile). […] Data Processing and Analysis: Statistical data analysis was performed using GraphPad Prism (version 8.2.1). Dose-response data was analyzed using a Kruskal-Wallis test, followed by Dunn's multiple comparisons. […] Dose- and concentration-response curves were generated using the Hill Langmuir equation: […]
# [2] = tested on: tonic hindlimb seizure following corneal stimulation in CF-1 mice; experiment: Mouse maximal electroshock (MES) assay, 60 Hz 50 mA corneal stimulation; type: in vivo
# Protocol: The interaction of Compound A with other ASMs was evaluated after oral dosing in the mouse maximal electroshock (MES) assay to determine whether some combinations were favorable or unfavorable. Efficacy was quantified by calculating the fraction of animals with a tonic hindlimb seizure following corneal stimulation. Compound Preparation: Compound A was initially solubilized in DMSO. This solution was then added into a 0.5% methyl cellulose solution to create a more even and less aggregated compound suspension. Serial dilutions were prepared from the tube with the highest concentration of Compound A and the compound suspensions were further vortexed prior to animal dosing. The final concentration of DMSO was 5%, an amount with no apparent toxicity or neuroprotection in the MES assay. […] Animals: Adult male CF-1 albino mice (25-35 g) purchased from Harlan-Envigo were used. The mice were housed four per cage and had access to filtered water and chow ad libidum, throughout the experiment. MES Assay: Compounds were administered orally by gavage before testing unless indicated otherwise. During MES testing, a 60-Hz alternating current (50 mA) was delivered for 0.2 seconds through corneal electrodes to the mice. A drop of 0.5% Alcaine solution was placed on the eye prior to current delivery. The electrodes were subsequently placed gently onto the eyes of the animal and the electrical shock was initiated by triggering through a foot-pedal activator. The animals were restrained by hand and gently released as the shock was delivered and the seizure commenced. Animals were monitored for hind limb tonic extension as the end point for this test. Statistical analysis: All statistics were calculated using Prism version 7 software (Graphpad Software). The method used for each experiment is indicated in the results section. Concentration-response curves were calculated as best fits to the equation […] where X was the log of plasma concentration. Unless indicated otherwise, bottom was constrained to be 0. Top was constrained to be the value determined experimentally by vehicle control measurements. Compound A Dose Response: […]
# [3] = Plasma and brain concentrations in 6 Hz studies (LC-MS/MS); type: in vivo, mouse; conditions: intraperitoneal
# Protocol: Sample Collection and Preparation: Mice were anesthetized by isoflurane inhalation (TECH-018) until they reached a surgical plane of anesthesia. Then a syringe (1 mL syringe with a 22 gauge needle) was inserted under the sternum into the heart (TECH-031). Approximately 0.5 mL of blood was collected, deposited into a K2EDTA tube, and stored on ice. Animals were then euthanized by cervical dislocation (TECH-018). Brains were removed, placed into a pre-weighed vial, and snap frozen on dry ice. At the end of the sample collection, blood was centrifuged at 4000 rpm for 10 minutes at 4° C., and the plasma pipetted into a labeled tube. All samples were stored in a −80° C. freezer until bioanalysis (8 days after sample collection for Studies 3A and 3B; 20 days after sample collection for Study 3C).
# Plasma and Tissue Sample Analysis: Bead mill polypropylene tubes containing weighed brain tissues were thawed at room temperature and 3 mL of homogenization solvent (water:acetonitrile (1:1, v:v)) was added. The tubes were placed in the Bead Mill Homogenizer (Bead Ruptor Elite Model, Omni International) and shaken at a velocity of 3.70 m/s for a single cycle lasting 30 seconds. The homogenized tube was centrifuged at 4000 rpm for 20 minutes, the supernatant was transferred to a 1.5 mL Eppendorf tube, and stored frozen at −80° C. until analysis. All samples including plasma and brain homogenate extracts (including calibration and quality control (QC) samples prepared in K2EDTA rat plasma), were extracted by protein precipitation. […] The samples in the 1.5 mL tubes were vortex mixed and then centrifuged for 20 minutes at 13,000 rpm. Fifty microliters of the supernatant was mixed with 150 μL of water/acetonitrile (1:1) in a 96 well plate which was centrifuged post mixing for 20 minutes at 4000 rpm, and was then ready for analysis by liquid chromatography tandem mass spectrometry (LC-MS/MS).
# Samples were analyzed by a research-grade LC-MS/MS method as follows: […]
smiles,measurement,setting,value
"CC[C@@H](C(N)=O)N1CCCC1=O [Levetiracetam, reference compound]",ED50,MES assay,> 500 mg/kg
same,average efficacy in previous experiments,"[1]; Levetiracetam 300 mg/kg IP 1 h, 34 milliampere 6 Hz",35%
same,Fraction Seizing,[1]; Studies 3B+3C combined,14/16
same,Fraction Seizing,[1]; Study 3B,8/8
same,Fraction Seizing,[1]; Study 3C,6/8
same,animals protected from seizing,"[1]; Study 3C, Levetiracetam 300 mg/kg IP alone",2/8
same,fraction of mice without tonic seizures,[2]; Levetiracetam 120 mg/kg IP 2 h,0/6
same,fraction of mice without tonic seizures,[2]; Levetiracetam 150 mg/kg IP 2 h,2/8
same,concentration at 1 h,"[3]; CF-1, mouse, brain, 300 mg/kg, Study 3B, Levetiracetam 300 mg/kg IP 1 h alone, read-out: Brain",861 ± 120 µM
same,concentration at 1 h,"[3]; CF-1, mouse, brain, Study 3C, analyte Levetiracetam, 300 mg/kg IP + Compound A 4 mg/kg PO, read-out: Brain",1100 ± 265 µM
same,concentration at 1 h,"[3]; CF-1, mouse, plasma, 300 mg/kg, Study 3B, Levetiracetam 300 mg/kg IP 1 h alone, read-out: Plasma",1500 ± 320 µM
same,concentration at 1 h,"[3]; mouse, brain, 300 mg/kg, Studies 3B+3C combined, Levetiracetam 300 mg/kg IP 1 h alone, read-out: Brain",996 µM
same,concentration at 1 h,"[3]; mouse, brain, 300 mg/kg, Study 3B, Levetiracetam 300 mg/kg IP 1 h alone, read-out: Brain",861 ± 120 µM
same,concentration at 1 h,"[3]; mouse, brain, Studies 3B+3C combined, analyte Levetiracetam, 300 mg/kg IP + Compound A 4 mg/kg PO, read-out: Brain",1050 µM
same,concentration at 1 h,"[3]; mouse, brain, Study 3B, analyte Levetiracetam, 300 mg/kg IP + Compound A 4 mg/kg PO, read-out: Brain",1010 µM
same,concentration at 1 h,"[3]; mouse, brain, Study 3C, analyte Levetiracetam, 300 mg/kg IP + Compound A 4 mg/kg PO, read-out: Brain",1100 µM
same,concentration at 1 h,"[3]; mouse, plasma, 300 mg/kg, Studies 3B+3C combined, Levetiracetam 300 mg/kg IP 1 h alone, read-out: Plasma",1640 µM
same,concentration at 1 h,"[3]; mouse, plasma, 300 mg/kg, Study 3B, Levetiracetam 300 mg/kg IP 1 h alone, read-out: Plasma",1500 ± 320 µM
same,concentration at 1 h,"[3]; mouse, plasma, Studies 3B+3C combined, analyte Levetiracetam, 300 mg/kg IP + Compound A 4 mg/kg PO, read-out: Plasma",1730 µM
same,concentration at 1 h,"[3]; mouse, plasma, Study 3B, analyte Levetiracetam, 300 mg/kg IP + Compound A 4 mg/kg PO, read-out: Plasma",1350 µM
same,concentration at 1 h,"[3]; mouse, plasma, Study 3C, analyte Levetiracetam, 300 mg/kg IP + Compound A 4 mg/kg PO, read-out: Plasma",2160 µM
"O=C1NC(=O)C(c2ccccc2)(c2ccccc2)N1 [Phenytoin, reference compound]","maximum % seizures of fitted curve, reflecting efficacy of Phenytoin alone",[2]; Phenytoin 2 mg/kg,75%
same,fraction of animals without tonic seizures,[2]; Phenytoin 2 mg/kg IP 2 h alone,6/24
"CCCC(CCC)C(=O)O [Valproic Acid, reference compound]",IC50,"[2]; Mus musculus, ip, read-out: IC50 for Valproic Acid (plasma level, inhibition of tonic seizures)",1.44 mM
same,number of mice without tonic seizures/total,[2]; Vehicle PO + Valproic Acid 56 mg/kg IP 0.5 h,1/7
same,number of mice without tonic seizures/total,[2]; Vehicle PO + Valproic Acid 100 mg/kg IP 0.5 h,5/15
same,number of mice without tonic seizures/total,"[2]; Vehicle+Valproic Acid at 56 mg/kg as printed, comparator of the 30 mg/kg combination",0/8
same,decrease of IC50 for Valproic Acid,[2]; combined with 1 mg/kg Compound A vs alone,2.37 fold
